Test results reported in the supplement of paper PMC7840683.
Where a name gives a salt, the structure may show the parent alone. ± gives the standard deviation of the averaged measurements.

Test system: HepaRG
Experiment: LDH release cytotoxicity, % of total lysis control; higher = more cytotoxic
Conditions: 48 h
Outline: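 Single-lot HepaRG cells in collagen I-coated 96-well plates were treated for 48 h in serum-free induction medium containing 0.5% DMSO with test chemicals in eight-point half-log series up to 100 µM. For total lysis, wells received 0.1% Triton X. LDH in 50 µL spent medium was assayed by resorufin fluorescence with CytoTox-ONE. Percent cytotoxicity was normalized to the on-plate vehicle and total lysis controls, with duplicates averaged.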

Structure (SMILES)	LDH release cytotoxicity (0.03162 µM) [%]	LDH release cytotoxicity (0.1 µM) [%]	LDH release cytotoxicity (0.3162278 µM) [%]	LDH release cytotoxicity (1 µM) [%]	LDH release cytotoxicity (3.16228 µM) [%]	LDH release cytotoxicity (10 µM) [%]	LDH release cytotoxicity (31.6228 µM) [%]	LDH release cytotoxicity (100 µM) [%]	other results
CCCCCCCCC=CCCCCCCCC(=O)OCC(O)C1OCC(O)C1O (configuration not stated) [Sorbitan, mono-(9Z)-9-octadecenoate]	-0.746 ± 0.21	-0.105 ± 0.41	-1.38 ± 0.83	-1.65 ± 0.91	-1.48 ± 1	-1.08 ± 0.14	-0.835 ± 0.26	-0.317 ± 0.22	–
CCC(C)(C)C(=O)OC1=C(c2ccc(Cl)cc2Cl)C(=O)OC12CCCCC2 [Spirodiclofen]	-0.904 ± 0.1	-1.21 ± 1.1	-0.287 ± 0.5	-1.32 ± 0.39	-1.74 ± 0.89	0.0779 ± 0.41	-1.05 ± 0.14	0.552 ± 0.59	–
CC(=O)SC1CC2=CC(=O)CCC2(C)C2CCC3(C)C(CCC34CCC(=O)O4)C12 (configuration not stated) [Spironolactone]	0.148 ± 1	-0.279 ± 0.079	-1.43 ± 0.44	-1.93 ± 0.13	-1.42 ± 0.35	-1.46 ± 0.3	-0.441 ± 0.098	13.5 ± 1.6	–
CCCN(CC)CC1COC2(CCC(C(C)(C)C)CC2)O1 (configuration not stated) [Spiroxamine]	-0.782 ± 0.87	-1.02 ± 0.35	0.233 ± 0.6	-0.292 ± 0.15	0.829 ± 0.38	0.738 ± 0.62	1.08 ± 0.99	1.62 ± 0.76	–
Cc1cn(C2C=CC(CO)O2)c(=O)[nH]c1=O (configuration not stated) [Stavudine]	-0.726 ± 0.35	-0.277 ± 0.41	0.0542 ± 0.56	0.024 ± 0.42	-0.127 ± 0.0047	0.3 ± 1.1	0.433 ± 0.49	2.36 ± 0.35	–
c1ccc(C2CO2)cc1 (configuration not stated) [Styrene oxide]	-1.36 ± 0.96	-1.15 ± 0.44	-1.2 ± 0.66	-1.64 ± 0.41	-1.36 ± 0.55	-0.823 ± 1.1	-0.175 ± 0.79	0.415 ± 0.9	–
CC(=O)OCC1OC(OC2(COC(C)=O)OC(COC(C)=O)C(OC(C)=O)C2OC(C)=O)C(OC(C)=O)C(OC(C)=O)C1OC(C)=O (configuration not stated) [Sucrose octaacetate]	–	–	–	–	–	–	–	–	LDH release cytotoxicity (0.0238752 µM): -0.662 ± 1.5%; LDH release cytotoxicity (0.0755 µM): -0.298 ± 1.5%; LDH release cytotoxicity (0.238752 µM): -0.188 ± 0.8%; LDH release cytotoxicity (0.755 µM): -1.45 ± 0.2%; LDH release cytotoxicity (2.38752 µM): -0.463 ± 0.58%; LDH release cytotoxicity (7.55 µM): -0.261 ± 0.3%; LDH release cytotoxicity (23.8752 µM): -0.0769 ± 0.54%; LDH release cytotoxicity (75.5 µM): 1.89 ± 0.36%
OCC1OC(OC2(CO)OC(CO)C(O)C2O)C(O)C(O)C1O (configuration not stated) [Sucrose]	-1.56 ± 0.45	-2.84 ± 0.18	-1.3 ± 0.074	-1.84 ± 0.36	-2 ± 1.1	-0.48 ± 1.6	-0.542 ± 1.9	1.54 ± 1.6	–
O=C(O)c1cc(N=Nc2ccc(S(=O)(=O)Nc3ccccn3)cc2)ccc1O [Sulfasalazine]	-0.789 ± 0.12	-1.61 ± 0.69	-0.498 ± 0.038	-0.487 ± 0.14	-0.767 ± 0.31	0.367 ± 0.64	0.113 ± 1.2	1.04 ± 1.2	–
Cc1nn(-c2cc(NS(C)(=O)=O)c(Cl)cc2Cl)c(=O)n1C(F)F [Sulfentrazone]	-1.66 ± 0.5	-1.99 ± 0.051	-2.52 ± 0.25	-2.37 ± 0.49	-0.982 ± 0.51	-1.17 ± 0.24	-1.23 ± 0.51	0.713 ± 0.36	–
CCc1c(C(=O)NN2CCCCC2)nn(-c2ccc(Cl)cc2Cl)c1-c1ccc(Br)cc1 [Surinabant]	-0.47 ± 0.5	-0.954 ± 0.83	-1.13 ± 1.6	-1.44 ± 0.058	-0.402 ± 0.14	2.16 ± 0.28	15.8 ± 2.2	77.6 ± 2.6	–
O=c1n(Cl)c(=O)n(Cl)c(=O)n1Cl [Symclosene]	-1.22 ± 0.62	-0.82 ± 0.92	-0.254 ± 0.19	-0.453 ± 0.22	0.284 ± 0.16	1.48 ± 1.4	0.324 ± 1.8	2.44 ± 2	–
CCC(=C(c1ccccc1)c1ccc(OCCN(C)C)cc1)c1ccccc1 [Tamoxifen citrate]	–	–	–	–	–	–	–	–	LDH release cytotoxicity (0.02893 µM): -0.702 ± 0.89%; LDH release cytotoxicity (0.0915 µM): -0.863 ± 0.61%; LDH release cytotoxicity (0.289348 µM): -1.43 ± 0.082%; LDH release cytotoxicity (0.915 µM): -1.01 ± 0.67%; LDH release cytotoxicity (2.89348 µM): 0.0489 ± 0.65%; LDH release cytotoxicity (9.15 µM): 0.563 ± 0.037%; LDH release cytotoxicity (28.9348 µM): 9.57 ± 0.34%; LDH release cytotoxicity (91.5 µM): 88.7 ± 7.3%
CCC(=C(c1ccccc1)c1ccc(OCCN(C)C)cc1)c1ccccc1 [Tamoxifen]	-1.09 ± 0.46	-0.968 ± 0.65	-1.82 ± 0.89	-2.26 ± 0.5	-0.69 ± 0.34	-0.919 ± 0.7	4.6 ± 0.9	79.7 ± 1.2	–
O=C(OC[C@H]1O[C@@H](OC(=O)c2cc(O)c(O)c(OC(=O)c3cc(O)c(O)c(O)c3)c2)[C@H](OC(=O)c2cc(O)c(O)c(OC(=O)c3cc(O)c(O)c(O)c3)c2)[C@@H](OC(=O)c2cc(O)c(O)c(OC(=O)c3cc(O)c(O)c(O)c3)c2)[C@@H]1OC(=O)c1cc(O)c(O)c(OC(=O)c2cc(O)c(O)c(O)c2)c1)c1cc(O)c(O)c(OC(=O)c2cc(O)c(O)c(O)c2)c1 [Tannic acid]	–	–	–	–	–	–	–	–	LDH release cytotoxicity (0.0096449 µM): -1.06 ± 2.3%; LDH release cytotoxicity (0.0305 µM): -1.19 ± 0.16%; LDH release cytotoxicity (0.0964495 µM): -2.39 ± 0.56%; LDH release cytotoxicity (0.305 µM): -2.34 ± 0.6%; LDH release cytotoxicity (0.964495 µM): -3.92 ± 0.22%; LDH release cytotoxicity (3.05 µM): -4.5 ± 0.39%; LDH release cytotoxicity (9.64495 µM): -0.0405 ± 0.038%; LDH release cytotoxicity (30.5 µM): 5.317 ± 0.018%
CC(C)(C)C(O)(CCc1ccc(Cl)cc1)Cn1cncn1 (configuration not stated) [Tebuconazole]	-1.4 ± 0.64	-0.0947 ± 0.069	-1.08 ± 1.2	-1.1 ± 1.6	-0.155 ± 0.14	-0.0217 ± 1.5	1.4 ± 1	16.5 ± 0.49	–
CCc1ccc(C(=O)NN(C(=O)c2cc(C)cc(C)c2)C(C)(C)C)cc1 [Tebufenozide]	-0.939 ± 1.3	0.194 ± 0.33	-0.662 ± 1.2	-0.0494 ± 1.4	-0.0064 ± 0.51	0.106 ± 0.49	0.645 ± 0.25	11.3 ± 0.39	–
CCc1nn(C)c(C(=O)NCc2ccc(C(C)(C)C)cc2)c1Cl [Tebufenpyrad]	-1.57 ± 0.17	-1.25 ± 0.71	-2.38 ± 0.55	5.74 ± 2.5	10.5 ± 1.9	15.5 ± 3.4	23.2 ± 2.7	49.6 ± 7.2	–
CCOP(=S)(Oc1cnc(C(C)(C)C)nc1)OC(C)C (configuration not stated) [Tebupirimfos]	–	-1.67 ± 1.3	–	-2.26 ± 0.87	-2.34 ± 0.48	-3.02 ± 0.61	-2.48 ± 1.2	-2.06 ± 1.2	LDH release cytotoxicity (0.031623 µM): 0.203 ± 2.2%; LDH release cytotoxicity (0.316228 µM): -2.72 ± 0.73%
